Experimental data reported in EP4353712A1 (Biodol Therapeutics, priority 2022, dated 2024).
Counter-ions that a name gives are not always drawn.

What follows are molecules tested against T1, FLT3 (Homo sapiens, UniProt P36888) (assay: HTRF binding assay of FL to FLT3 (TR-FRET, SNAP-FLT3 transfected HEK293T cells)). Conditions: HEK293T cells transfected with SNAP-FLT3, labelled with SNAP-Lumi4-Tb; compounds 1 h at room temperature, then FL-d2 (0.5 nM), read after 20 h; 12 dilutions in triplicates, performed twice; read-out: Inhibition of FLT3 binding IC50, binding.
T1 construct: expressed in transfected cells; host or cells: HEK293T
T1 sequence (P36888 27-993): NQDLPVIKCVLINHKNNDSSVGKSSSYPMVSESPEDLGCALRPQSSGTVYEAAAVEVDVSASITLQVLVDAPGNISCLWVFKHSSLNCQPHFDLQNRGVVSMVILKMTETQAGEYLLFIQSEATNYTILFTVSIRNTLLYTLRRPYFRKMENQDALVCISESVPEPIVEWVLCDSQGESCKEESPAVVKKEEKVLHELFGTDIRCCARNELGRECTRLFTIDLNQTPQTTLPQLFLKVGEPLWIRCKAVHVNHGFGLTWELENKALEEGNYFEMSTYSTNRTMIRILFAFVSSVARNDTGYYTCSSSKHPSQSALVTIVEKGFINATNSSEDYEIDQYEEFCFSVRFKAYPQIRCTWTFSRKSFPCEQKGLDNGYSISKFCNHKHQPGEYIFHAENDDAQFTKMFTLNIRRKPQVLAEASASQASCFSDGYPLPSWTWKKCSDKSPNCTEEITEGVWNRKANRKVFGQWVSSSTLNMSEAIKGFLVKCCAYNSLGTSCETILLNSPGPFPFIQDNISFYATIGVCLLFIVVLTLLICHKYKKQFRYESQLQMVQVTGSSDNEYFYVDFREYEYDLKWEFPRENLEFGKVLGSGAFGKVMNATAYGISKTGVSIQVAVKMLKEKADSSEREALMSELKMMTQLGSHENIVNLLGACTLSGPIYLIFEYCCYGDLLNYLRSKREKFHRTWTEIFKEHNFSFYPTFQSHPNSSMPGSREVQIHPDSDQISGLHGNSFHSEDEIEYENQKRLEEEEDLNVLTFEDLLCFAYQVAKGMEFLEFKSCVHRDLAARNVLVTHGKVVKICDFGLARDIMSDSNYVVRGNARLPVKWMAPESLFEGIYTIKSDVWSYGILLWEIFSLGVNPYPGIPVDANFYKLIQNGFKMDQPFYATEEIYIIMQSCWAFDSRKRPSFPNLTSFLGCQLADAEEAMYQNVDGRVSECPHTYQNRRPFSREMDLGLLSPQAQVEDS
Protocol: The binding of FL to FLT3 was measured by a Homologous Time-Resolved Fluorescence (HTRF) assay (Degorce et al., Current Chemical Genomics, 2009, 3, 22-32), which involves resonance energy transfer between a donor, Lumi4-Tb-donor-derivatized benzylguanine substrate (SNAP-Lumi4-Tb, excitation: 337 nm, emission: 630 nm, Cisbio, France), transfected in HEK cells, and an acceptor, red fluorescent FL (FL-d2, excitation: 620 nm, emission: 660 nm, Cisbio, France). When FL-d2 binds to the SNAP-Lumi4-Tb-tagged FLT3 receptor, the proximity of both fluorophores allows the time-resolved Förster resonance energy transfer (TR-FRET) signal to occur and the binding is measured as the ratio between the fluorescent emissions at 660 to 620 nm.
The detailed method is described in Rivat et al. (Nature Communications, 2018, 9 :1042). Briefly, HEK293T cells were transfected with a pCDNA3.1 SNAP-FLT3 plasmid by using Lipofectamine (Invitrogen), and were than labelled with SNAP-Lumi4-Tb. Plates containing attached transfected HEK293T cells were incubated with compounds of formula (I) for 1 h at room temperature. A series of 12 dilutions in triplicates was used for each compound and the experiment was performed twice. Then FL-d2 (0.5 nM) was added and the TR-FRET signal was read after 20 h incubation at room temperature with a HTRF-compatible reader (Envision, Perkin Elmer) allowing a donor excitation at 337 nm and a signal collection both at 615 nm and 665 nm (20 flashes, delay 50 µs, integration time 400 µs). Then HTRF ratio, obtained by dividing the acceptor signal (665 nm) by the donor signal (615 nm), was calculated at each concentration of test compounds. Non-specific binding was measured in the presence 50 µM of BDT001 (Rivat et al., ibid.). Concentration giving 50 % inhibition (IC50) were calculated by non-linear regression analysis for a one-site model, with variable slope (Prism®, Graphpad software, USA).

Point of comparison: `CN1CCC(c2ccc(C(=O)Nc3cccc4cnccc34)cc2F)CC1` [(13), 3-fluoro-N-(isoquinolin-5-yl)-4-(1-methylpiperidin-4-yl)benzamide], IC50 1400 nM. Against it:
- COc1cc(C(=O)Nc2cccc3ncccc23)ccc1N1CCN(C)CC1 [(50), 3-methoxy-4-(4-methylpiperazin-1-yl)-N-(quinolin-5-yl)benzamide] — 1.6-fold higher, 2300 nM
- CN1CCN(c2ccc(C(=O)Nc3ccc(C(F)(F)F)c4ccncc34)cc2)CC1 [(52), 4-(4-methylpiperazin-1-yl)-N-[5-(trifluoromethyl)isoquinolin-8-yl]benzamide hydrochloride] — 5.4-fold higher, 7500 nM
- CN(C)CCOc1ccc(C(=O)Nc2ccc(Cl)c3ncccc23)cc1 [(32), N-(8-chloroquinolin-5-yl)-4-[2-(dimethylamino)ethoxy]benzamide] — 1.7-fold higher, 2400 nM
- CN(C)CCOc1ccc(C(=O)Nc2ccc(F)c3cccnc23)cc1 [(26), 4-[2-(dimethylamino)ethoxy]-N-(5-fluoroquinolin-8-yl)benzamide] — the same, 1400 nM
- CN1CCN(c2ccc(C(=O)Nc3cccc4ccncc34)cc2)CC1 [(38), N-(isoquinolin-8-yl)-4-(4-methylpiperazin-1-yl)benzamide] — 2.3-fold lower, 600 nM
- CN1CCC(c2ccc(C(=O)Nc3cccc4nccnc34)cc2)CC1 [(28), 4-(1-methylpiperidin-4-yl)-N-(quinoxalin-5-yl)benzamide] — 3.5-fold lower, 400 nM
- CN(C)CCOc1ccc(C(=O)Nc2cccc3ccncc23)cc1 [(10), 4-[2-(dimethylamino)ethoxy]-N-(isoquinolin-8-yl)benzamide] — 1.8-fold lower, 800 nM
- CN(C)CCOc1ccc(C(=O)Nc2cccc3ncccc23)cc1 [(15), 4-(2-(dimethylamino)ethoxy)-N-(quinolin-5-yl)benzamide] — within 1.5-fold, 1700 nM
- CN1CCC(c2ccc(C(=O)Nc3ccc(F)c4cnccc34)cc2)CC1 [(2), N-(8-fluoroisoquinolin-5-yl)-4-(1-methylpiperidin-4-yl)benzamide] — the same, 1400 nM
- CN1CCN(c2ccc(C(=O)Nc3ccc(F)c4nccnc34)cc2)CC1 [(37), N-(8-fluoroquinoxalin-5-yl)-4-(4-methylpiperazin-1-yl)benzamide] — 2-fold lower, 700 nM
- CN1CCN(c2ccc(C(=O)Nc3cccc4nccnc34)cc2)CC1 [(41), 4-(4-methylpiperazin-1-yl)-N-(quinoxalin-5-yl)benzamide] — 2.3-fold lower, 600 nM
- COc1cc(C2CCN(C)CC2)ccc1C(=O)Nc1cccc2cccnc12 [(16), 2-methoxy-4-(1-methylpiperidin-4-yl)-N-(quinolin-8-yl)benzamide] — 2.3-fold lower, 600 nM
- CN1CCN(c2ccc(C(=O)Nc3ccc(Cl)c4ncccc34)cc2)CC1 [(46), N-(8-chloroquinolin-5-yl)-4-(4-methylpiperazin-1-yl)benzamide] — within 1.5-fold, 1000 nM
- COc1ccc(NC(=O)c2ccc(OCCN(C)C)cc2)c2ccncc12 [(34)] — 2.8-fold lower, 500 nM
